# Where “and” joins values, the source holds several entries; their conditions need not be identical. Identical values can stand only once.
# Test system: bovine IVF-oocytes
# Experiment: Example 8: Hb (1 μg/ml) in mBECM co-culture, oocytes collected in different months, pre-hatching development
# Format: cell-based
# Parameters: key to Least square mean ± SE of embryos developed to 8-cell / Least square mean ± SE of embryos developed to 16-cell / Least square mean ± SE of embryos developed to Morula / Least square mean ± SE of embryos developed to Blastocyst / Least square mean ± SE of embryos developed to 2-cell: mean of per-embryo scores: 1 = developed to stage, 0 = not developed
# Procedure: The basic medium used for maturation of oocytes was tissue culture medium (TCM)-199 with Earle's salts, buffered with 25 mM HEPES (Gibco BRL, Grand Island, N.Y.) and supplemented with 10% (v/v) heat-inactivated fetal bovine serum (FBS; Hyclone Laboratories, Logan, Utah), 1 μg/ml estradiol-17β (NOBL Laboratories, Sioux Center, Iowa), 3 μg/ml bovine FSH (NOBL Laboratories), 6 μg/ml bovine LH (NOBL Laboratories), and 25 μg/ml gentamycin (Sigma Chemical Co., St. Louis, Mo.). The basic medium used for treatment of spermatozoa and fertilization of oocytes was a modified Tyrode's medium (J. Parrish et al., Capacitation of bovine sperm by heparin. Biol. Reprod. 38:1171-1180 (1988)), supplemented with 0.25 mM sodium pyruvate (Gibco BRL), 6 mg/ml fatty acid (FA)-free BSA (No. A-6003, Sigma), 15 μg/ml calcium heparin from porcine intestinal mucosa (183 USP/mg; H-8398, Sigma), and 25 μg/ml gentamycin. Modified bovine embryo culture medium (mBECM) containing 10 μM β-mercaptoethanol was used for culture of embryos, as described in J. Lim et al., “Roles of growth factors in the development of bovine embryos fertilized in vitro and cultured singly in a defined medium,” Reprod. Fertil. Dev., 8:1199-1205 (1996). mBECM supplemented with 10% (v/v) FBS was used for co-culturing inseminated oocytes with CGC. Osmolarity of the medium was maintained within the range of 265-290 mOsm.
# All cumulus-oocyte complexes (COC) were collected in Madison, Wis. (BOMED, Inc.) and were shipped in 2 ml of maturation medium in a battery powered incubator via overnight express mail service. Oocytes matured during transit and arrived within 24 h after exposure to maturation medium, pre-equilibrated at 39° C. in 5% CO2 in air. At 22 to 24 h after exposure to the medium, the COCs were inseminated in vitro as described in J. Lim et al., “Intracytoplasmic glutathione concentration and the role of β-mercaptoethanol in preimplantation development of bovine embryos,” Theriogenology, 46:429-439 (1996). At 18 h post-insemination, COCs were cultured in groups (28-40 embryos) in a 4-well multidish (Nunc, Roskilde, Denmark) containing 0.8-ml of mBECM. Embryos were dislodged from CGC at 36 to 48 h post-insemination.
# In Example 8, bovine follicular oocytes were collected from November 1996 to May 1997, and matured and fertilized in culture. (Oocytes collected during summer and early fall were not used in this study, to avoid interference from environmental heat stress on in vitro survival of embryos.) IVF embryos were collected at 18 h post-insemination and cultured in mBECM supplemented with FBS (10%, v/v), to which 0 or 1 μg/ml Hb (from bovine, mainly methemoglobin, H-2500, Sigma Co.) was added. Development of embryos to the 2-cell, 8-cell, 16-cell, morula, and blastocyst stages was monitored 48, 60, 120, 144 and 192 h post-insemination, respectively. As a supplemental experiment, some blastocysts in each treatment (20 or 28) were randomly collected, and the cell number of the blastocysts was counted by use of Hoechst stain 33342 and a fluorescent microscope (Diaphod, Nikkon, Tokyo, Japan). This experiment used 1675 embryos in 25 replicates, with IVF embryos randomly allotted among treatments.
# Embryos developed to the 2-cell, 8-cell, 16-cell, morula, and blastocyst stages at the pertinent observation times were individually scored ‘1’ (developed). Embryos that had not developed to these stages at the same times were scored ‘0’ (non-developed). Sums of the scores at each stage of development were evaluated by analysis of variance using a general linear model (PROC-GLM) in the SAS statistical programming package (1991). In Example 8, the combined effects of Hb addition and month of oocyte collection were first examined in a 2×7 factorial arrangement. Overall differences in embryonic development in Hb-free and Hb-containing culture systems were further evaluated. […] Differences were regarded as statistically significant where P values were less than 0.05.
substance,measurement,setting,value
hemoglobin [Hb],Least square mean ± SE of embryos developed to 2-cell,April,0.70 ± 0.03
same,Least square mean ± SE of embryos developed to 8-cell,April,0.48 ± 0.03
same,Least square mean ± SE of embryos developed to 16-cell,April,0.39 ± 0.03
same,Least square mean ± SE of embryos developed to Blastocyst,April,0.25 ± 0.03
same,Least square mean ± SE of embryos developed to Morula,April,0.32 ± 0.03
same,Least square mean ± SE of embryos developed to 2-cell,December,0.79 ± 0.05
same,Least square mean ± SE of embryos developed to 8-cell,December,0.59 ± 0.05
same,Least square mean ± SE of embryos developed to 16-cell,December,0.53 ± 0.05
same,Least square mean ± SE of embryos developed to Blastocyst,December,0.36 ± 0.05
same,Least square mean ± SE of embryos developed to Morula,December,0.41 ± 0.05
same,Least square mean ± SE of embryos developed to 2-cell,February,0.77 ± 0.04
same,Least square mean ± SE of embryos developed to 8-cell,February,0.53 ± 0.04
same,Least square mean ± SE of embryos developed to 16-cell,February,0.44 ± 0.04
same,Least square mean ± SE of embryos developed to Blastocyst,February,0.35 ± 0.04
same,Least square mean ± SE of embryos developed to Morula,February,0.40 ± 0.04
same,Least square mean ± SE of embryos developed to 2-cell,January,0.70 ± 0.04
same,Least square mean ± SE of embryos developed to 8-cell,January,0.45 ± 0.04
same,Least square mean ± SE of embryos developed to 16-cell,January,0.42 ± 0.04
same,Least square mean ± SE of embryos developed to Blastocyst,January,0.28 ± 0.04
same,Least square mean ± SE of embryos developed to Morula,January,0.32 ± 0.04
same,Least square mean ± SE of embryos developed to 2-cell,March,0.58 ± 0.05
same,Least square mean ± SE of embryos developed to 8-cell,March,0.40 ± 0.06
same,Least square mean ± SE of embryos developed to 16-cell,March,0.31 ± 0.06
same,Least square mean ± SE of embryos developed to Blastocyst,March,0.20 ± 0.05
same,Least square mean ± SE of embryos developed to Morula,March,0.23 ± 0.06
same,Least square mean ± SE of embryos developed to 2-cell,May,0.70 ± 0.05
same,Least square mean ± SE of embryos developed to 8-cell,May,0.60 ± 0.05
same,Least square mean ± SE of embryos developed to 16-cell,May,0.49 ± 0.05
same,Least square mean ± SE of embryos developed to Blastocyst,May,0.40 ± 0.05
same,Least square mean ± SE of embryos developed to Morula,May,0.44 ± 0.05
same,Least square mean ± SE of embryos developed to 2-cell,November,0.89 ± 0.07
same,Least square mean ± SE of embryos developed to 8-cell,November,0.71 ± 0.08
same,Least square mean ± SE of embryos developed to 16-cell,November,0.60 ± 0.08
same,Least square mean ± SE of embryos developed to Blastocyst,November,0.34 ± 0.07
same,Least square mean ± SE of embryos developed to Morula,November,0.57 ± 0.08
same,"formation of blastocysts (least square mean), range over months","November-May, control 0.17-0.32",0.20-0.4
same,"formation of morulae (least square mean), range over months","November-May, control 0.2-0.37",0.23-0.57
same,Number of embryos developed to 2-cell,"all months overall, 831 embryos cultured, 48 h",601
same,Number of embryos developed to 8-cell,"all months overall, 831 embryos cultured, 60 h",427
same,Number of embryos developed to 16-cell,"all months overall, 831 embryos cultured, 120 h",358
same,Number of embryos developed to Morula,"all months overall, 831 embryos cultured, 144 h",300
same,Number of embryos developed to Blastocyst,"all months overall, 831 embryos cultured, 192 h",251
same,Least square mean ± SE of embryos developed to 2-cell,"all months overall, 48 h",0.73 ± 0.02
same,Least square mean ± SE of embryos developed to 8-cell,"all months overall, 60 h",0.54 and 0.54 ± 0.02
same,Least square mean ± SE of embryos developed to 16-cell,"all months overall, 120 h",0.45 and 0.45 ± 0.02
same,Least square mean ± SE of embryos developed to Morula,"all months overall, 144 h",0.39 and 0.39 ± 0.02
same,Least square mean ± SE of embryos developed to Blastocyst,"all months overall, 192 h",0.31 and 0.31±0.02
same,effect on development to the 2-cell stage,"all months overall, P>0.73",no significant effect
